We go through 8 compounds from ChEMBL document CHEMBL3608278 (J Med Chem, 2015).

In test [1] the target is T1, Potassium voltage-gated channel subfamily A member 3 (Homo sapiens, UniProt P22001). The format is cell-based, CHO-K1.
The target of test [2] is T1, Potassium voltage-gated channel subfamily A member 3. The experiment in a line: cell-based. More on the design: species or system Blood.
Test [3] shares this target. Also on record: species or system Blood.

T1 sequence (P22001 whole entry): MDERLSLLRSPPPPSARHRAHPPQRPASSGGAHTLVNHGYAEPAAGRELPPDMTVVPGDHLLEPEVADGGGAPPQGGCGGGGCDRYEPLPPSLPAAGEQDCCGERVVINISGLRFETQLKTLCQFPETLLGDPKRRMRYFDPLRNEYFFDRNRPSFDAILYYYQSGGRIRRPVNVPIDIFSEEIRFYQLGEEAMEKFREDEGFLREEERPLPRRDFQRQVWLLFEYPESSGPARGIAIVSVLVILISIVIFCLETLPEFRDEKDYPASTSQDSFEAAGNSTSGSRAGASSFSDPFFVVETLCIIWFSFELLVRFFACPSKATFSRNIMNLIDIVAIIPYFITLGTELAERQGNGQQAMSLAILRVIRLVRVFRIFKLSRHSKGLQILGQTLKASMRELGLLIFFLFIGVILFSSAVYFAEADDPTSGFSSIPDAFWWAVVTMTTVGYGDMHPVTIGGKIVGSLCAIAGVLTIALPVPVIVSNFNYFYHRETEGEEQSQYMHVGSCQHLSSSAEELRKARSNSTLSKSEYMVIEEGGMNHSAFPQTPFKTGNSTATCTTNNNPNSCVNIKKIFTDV

`CC[C@H](C)[C@@H]1NC(=O)[C@@H](NC(=O)[C@H](CO)NC(=O)[C@@H](N)CCCNC(=N)N)CSSC[C@@H](C(=O)O)NC(=O)[C@H]([C@@H](C)O)NC(=O)CNC(=O)[C@@H]2CSSC[C@@H]3NC(=O)[C@H](CCC(N)=O)NC(=O)[C@H](Cc4ccccc4)NC(=O)[C@H](C)NC(=O)[C@H]([C@@H](C)O)NC(=O)[C@H](CSSC[C@H](NC(=O)[C@H](Cc4ccccc4)NC(=O)[C@H](CO)NC(=O)[C@H](CC(C)C)NC(=O)[C@H](CCCNC(=N)N)NC(=O)[C@H](C)NC(=O)[C@H](CCCCN)NC(=O)[C@H](CCSC)NC(=O)[C@H](CO)NC(=O)[C@H](Cc4cnc[nH]4)NC(=O)[C@H](CCCCN)NC3=O)C(=O)N[C@@H](CCCNC(=N)N)C(=O)N[C@@H](CCCCN)C(=O)N[C@@H]([C@@H](C)O)C(=O)N2)NC(=O)[C@H](CCCNC(=N)N)NC(=O)[C@H](CO)NC(=O)[C@H](CCCCN)NC(=O)[C@@H]2CCCN2C(=O)[C@H]([C@@H](C)CC)NC(=O)[C@H]([C@@H](C)O)NC(=O)[C@H](CC(=O)O)NC1=O`: the half-inhibitory concentration (IC50) in test [1] is 0.261 nM; in test [2], 3.09 nM; in test [3], 5.67 nM.

Consider `CC[C@H](C)[C@@H]1NC(=O)[C@@H](NC(=O)[C@H](CO)NC(=O)[C@@H](N)CCCNC(=N)N)CSSC[C@@H](C(=O)O)NC(=O)[C@H]([C@@H](C)O)NC(=O)CNC(=O)[C@@H]2CSSC[C@@H]3NC(=O)[C@H](CCC(N)=O)NC(=O)[C@H](Cc4ccccc4)NC(=O)[C@H](C)NC(=O)[C@H]([C@@H](C)O)NC(=O)[C@H](CSSC[C@H](NC(=O)[C@H](C)NC(=O)[C@H](CO)NC(=O)[C@H](CC(C)C)NC(=O)[C@H](CCCNC(=N)N)NC(=O)[C@H](Cc4ccc(O)cc4)NC(=O)[C@H](CCCCN)NC(=O)[C@H](CCSC)NC(=O)[C@H](CO)NC(=O)[C@H](Cc4cnc[nH]4)NC(=O)[C@H](CCCCN)NC3=O)C(=O)N[C@@H](CCCNC(=N)N)C(=O)N[C@@H](CCCCN)C(=O)N[C@@H]([C@@H](C)O)C(=O)N2)NC(=O)[C@H](CCCNC(=N)N)NC(=O)[C@H](CO)NC(=O)[C@H](CCCCN)NC(=O)[C@@H]2CCCN2C(=O)[C@H]([C@@H](C)CC)NC(=O)[C@H]([C@@H](C)O)NC(=O)[C@H](CC(=O)O)NC1=O`, for which the figures for the IC50 in test [1], in test [2] and in test [3] were 0.275 nM, 1.5 nM and 8.01 nM, respectively.

In the case of `CC[C@H](C)[C@@H]1NC(=O)[C@@H](NC(=O)[C@H](CO)NC(=O)[C@@H](N)CCCNC(=N)N)CSSC[C@@H](C(=O)O)NC(=O)[C@H]([C@@H](C)O)NC(=O)CNC(=O)[C@@H]2CSSC[C@@H]3NC(=O)[C@H](CCC(N)=O)NC(=O)[C@H](Cc4ccccc4)NC(=O)[C@H](C)NC(=O)[C@H]([C@@H](C)O)NC(=O)[C@H](CSSC[C@H](NC(=O)[C@H](Cc4ccccc4)NC(=O)[C@H](CO)NC(=O)[C@H](CC(C)C)NC(=O)[C@H](CCCNC(=N)N)NC(=O)[C@H](Cc4ccc(O)cc4)NC(=O)[C@H](CCCCN)NC(=O)[C@H](CCSC)NC(=O)[C@H](CO)NC(=O)[C@H](Cc4cnc[nH]4)NC(=O)[C@H](CCCCN)NC3=O)C(=O)N[C@@H](CCCNC(=N)N)C(=O)N[C@@H](C)C(=O)N[C@@H]([C@@H](C)O)C(=O)N2)NC(=O)[C@H](CCCNC(=N)N)NC(=O)[C@H](CO)NC(=O)[C@H](CCCCN)NC(=O)[C@@H]2CCCN2C(=O)[C@H]([C@@H](C)CC)NC(=O)[C@H]([C@@H](C)O)NC(=O)[C@H](CC(=O)O)NC1=O`, the IC50 in test [1] was found to be 0.173 nM; in test [2], 0.186 nM; in test [3], 0.308 nM.

Regarding `CC[C@H](C)[C@@H]1NC(=O)[C@@H](NC(=O)[C@H](CO)NC(=O)[C@@H](N)CCCNC(=N)N)CSSC[C@@H](C(=O)O)NC(=O)[C@H](C)NC(=O)CNC(=O)[C@@H]2CSSC[C@@H]3NC(=O)[C@H](CCC(N)=O)NC(=O)[C@H](Cc4ccccc4)NC(=O)[C@H](C)NC(=O)[C@H]([C@@H](C)O)NC(=O)[C@H](CSSC[C@H](NC(=O)[C@H](Cc4ccccc4)NC(=O)[C@H](CO)NC(=O)[C@H](CC(C)C)NC(=O)[C@H](CCCNC(=N)N)NC(=O)[C@H](Cc4ccc(O)cc4)NC(=O)[C@H](CCCCN)NC(=O)[C@H](CCSC)NC(=O)[C@H](CO)NC(=O)[C@H](Cc4cnc[nH]4)NC(=O)[C@H](CCCCN)NC3=O)C(=O)N[C@@H](CCCNC(=N)N)C(=O)N[C@@H](CCCCN)C(=O)N[C@@H]([C@@H](C)O)C(=O)N2)NC(=O)[C@H](CCCNC(=N)N)NC(=O)[C@H](CO)NC(=O)[C@H](CCCCN)NC(=O)[C@@H]2CCCN2C(=O)[C@H]([C@@H](C)CC)NC(=O)[C@H]([C@@H](C)O)NC(=O)[C@H](CC(=O)O)NC1=O`, the IC50 came out at 0.133 nM in test [1], 0.053 nM in test [2] and 0.083 nM in test [3].

Regarding `CC[C@H](C)[C@@H]1NC(=O)[C@@H](NC(=O)[C@H](Cc2cccc3ccccc23)NC(=O)[C@@H](N)CCCNC(=N)N)CSSC[C@@H](C(=O)O)NC(=O)[C@H]([C@@H](C)O)NC(=O)CNC(=O)[C@@H]2CSSC[C@@H]3NC(=O)[C@H](CCC(N)=O)NC(=O)[C@H](Cc4ccccc4)NC(=O)[C@H](C)NC(=O)[C@H]([C@@H](C)O)NC(=O)[C@H](CSSC[C@H](NC(=O)[C@H](Cc4ccccc4)NC(=O)[C@H](CO)NC(=O)[C@H](CC(C)C)NC(=O)[C@H](CCCNC(=N)N)NC(=O)[C@H](Cc4ccc(O)cc4)NC(=O)[C@H](CCCCN)NC(=O)[C@H](CCSC)NC(=O)[C@H](CO)NC(=O)[C@H](Cc4cnc[nH]4)NC(=O)[C@H](CCCCN)NC3=O)C(=O)N[C@@H](CCCNC(=N)N)C(=O)N[C@@H](CCCCN)C(=O)N[C@@H]([C@@H](C)O)C(=O)N2)NC(=O)[C@H](CCCNC(=N)N)NC(=O)[C@H](CO)NC(=O)[C@H](CCCCN)NC(=O)[C@@H]2CCCN2C(=O)[C@H]([C@@H](C)CC)NC(=O)[C@H]([C@@H](C)O)NC(=O)[C@H](CC(=O)O)NC1=O`, the values for the IC50 in test [1], in test [2] and in test [3] were 0.257 nM, 0.223 nM and 0.258 nM, respectively.

In the case of `CC[C@H](C)[C@@H]1NC(=O)[C@H]([C@@H](C)O)NC(=O)[C@H](CC(=O)O)NC(=O)[C@H](Cc2cccc3ccccc23)NC(=O)[C@@H](NC(=O)[C@H](CO)NC(=O)[C@@H](N)CCCNC(=N)N)CSSC[C@@H](C(=O)O)NC(=O)[C@H]([C@@H](C)O)NC(=O)CNC(=O)[C@@H]2CSSC[C@@H]3NC(=O)[C@H](CCC(N)=O)NC(=O)[C@H](Cc4ccccc4)NC(=O)[C@H](C)NC(=O)[C@H]([C@@H](C)O)NC(=O)[C@H](CSSC[C@H](NC(=O)[C@H](Cc4ccccc4)NC(=O)[C@H](CO)NC(=O)[C@H](CC(C)C)NC(=O)[C@H](CCCNC(=N)N)NC(=O)[C@H](Cc4ccc(O)cc4)NC(=O)[C@H](CCCCN)NC(=O)[C@H](CCSC)NC(=O)[C@H](CO)NC(=O)[C@H](Cc4cnc[nH]4)NC(=O)[C@H](CCCCN)NC3=O)C(=O)N[C@@H](CCCNC(=N)N)C(=O)N[C@@H](CCCCN)C(=O)N[C@@H]([C@@H](C)O)C(=O)N2)NC(=O)[C@H](CCCNC(=N)N)NC(=O)[C@H](CO)NC(=O)[C@H](CCCCN)NC(=O)[C@@H]2CCCN2C1=O`, the IC50 in test [1] was found to be 0.154 nM; in test [2], 0.274 nM; in test [3], 0.318 nM.

With `CC[C@H](C)[C@@H]1NC(=O)[C@@H](NC(=O)[C@H](CO)NC(=O)[C@@H](N)CCCNC(=N)N)CSSC[C@@H](C(=O)O)NC(=O)[C@H]([C@@H](C)O)NC(=O)CNC(=O)[C@@H]2CSSC[C@@H]3NC(=O)[C@H](CCC(N)=O)NC(=O)[C@H](Cc4ccccc4)NC(=O)[C@H](C)NC(=O)[C@H]([C@@H](C)O)NC(=O)[C@H](CSSC[C@H](NC(=O)[C@H](Cc4ccccc4)NC(=O)[C@H](CO)NC(=O)[C@H](CC(C)C)NC(=O)[C@H](CCCNC(=N)N)NC(=O)[C@H](Cc4ccc(O)cc4)NC(=O)[C@H](CCCCN)NC(=O)[C@H](CCSC)NC(=O)[C@H](CO)NC(=O)[C@H](Cc4cnc[nH]4)NC(=O)[C@H](CCCCN)NC3=O)C(=O)N[C@@H](CCCNC(=N)N)C(=O)N[C@@H](CCCCN)C(=O)N[C@@H]([C@@H](C)O)C(=O)N2)NC(=O)[C@H](CCCNC(=N)N)NC(=O)[C@H](CO)NC(=O)[C@H](CCCCN)NC(=O)[C@@H]2CCCN2C(=O)[C@H]([C@@H](C)CC)NC(=O)[C@H]([C@@H](C)O)NC(=O)[C@H](Cc2cccc3ccccc23)NC1=O`, the values for the IC50 in test [1], in test [2] and in test [3] were greater than 3.33 nM, 70.4 nM and greater than 31.9 nM, respectively.

For the compound `CC[C@H](C)[C@@H]1NC(=O)[C@@H](NC(=O)[C@H](CO)NC(=O)[C@@H](N)CCCNC(=N)N)CSSC[C@@H](C(=O)O)NC(=O)[C@H]([C@@H](C)O)NC(=O)CNC(=O)[C@@H]2CSSC[C@@H]3NC(=O)[C@H](CCC(N)=O)NC(=O)[C@H](Cc4ccccc4)NC(=O)[C@H](C)NC(=O)[C@H]([C@@H](C)O)NC(=O)[C@H](CSSC[C@H](NC(=O)[C@H](Cc4ccccc4)NC(=O)[C@H](CO)NC(=O)[C@H](CC(C)C)NC(=O)[C@H](CCCNC(=N)N)NC(=O)[C@H](Cc4ccc(O)cc4)NC(=O)[C@H](CCCCN)NC(=O)[C@H](CCSC)NC(=O)[C@H](CO)NC(=O)[C@H](Cc4c[nH]cn4)NC(=O)[C@H](CCCCN)NC3=O)C(=O)N[C@@H](CCCNC(=N)N)C(=O)N[C@@H](CCCCN)C(=O)N[C@@H]([C@@H](C)O)C(=O)N2)NC(=O)[C@H](CCCNC(=N)N)NC(=O)[C@H](CO)NC(=O)[C@H](CCCCN)NC(=O)[C@@H]2CCCN2C(=O)[C@H]([C@@H](C)CC)NC(=O)[C@H](Cc2cccc3ccccc23)NC(=O)[C@H](CC(=O)O)NC1=O`, the IC50 in test [1] turned out to be 0.153 nM; in test [2], 0.86 nM; in test [3] it was 0.962 nM.

A word on the IC50: it is the concentration needed to halve the response being measured.
